# Values of other authors as cited in patent US20100234277A1, “COADMINISTRATION OF ALPHA-FETOPROTEIN AND A DISEASE MODIFYING ANTI-RHEUMATIC DRUG FOR TREATING INFLAMMATORY ARTHRITIC DISEASE” (priority 2006, published 2010).
# Settings: in vivo
compound,measurement,value
"CN(Cc1cnc2nc(N)nc(N)c2n1)c1ccc(C(=O)N[C@@H](CCC(=O)O)C(=O)O)cc1 [methotrexate, N-[4-[[(2,4-diamino-6-pteridinyl)methyl]methylamino]benzoyl]-L-glutamic acid]",individuals with rheumatoid arthritis (RA) that respond favorably to treatment,Approximately 70%
